Where “and” joins values, the source holds several entries; their conditions need not be identical. Equal values may be shown once. Read-outs that look alike come from different tables or passages of the source.
System: panel of 66 cancer cell lines
Experiment: cancer cell line screen, proliferation assay (ATPlite, 72 h)
Format: cell-based, human
Conditions: for IC50: Homo sapiens; for raw signal, dose-response (Figure S7a): rep1, rep2, listed as AVX235
Text: Targeting specific molecular vulnerabilities in cancer is considered a key approach to reducing the adverse effects of chemotherapy. However, the events that govern the susceptibility to suppression of the cPLA2α in cancer remain largely unexplored. We therefore took the approach of screening the antiproliferative activity of AVX420 in a panel of 66 cancer cell lines (hereafter referred to as the cancer cell line screen or CCLS) to allow us to investigate molecular and genetic vulnerabilities to the drug.
Screening of compound activities in 66 cancer cell lines was carried out at the Netherlands Translation Research Center. Briefly, proliferation assays were performed 72 h after compound addition using ATPlite 1step reagent (Perkin Elmer). IC50s calculated by non-linear regression analysis were used as a measure of compound activity for investigating associations with genetic factors. A complete description of the laboratory and data analysis methods are available in the Supplementary Information file (Supplemental Methods: Cancer Cell Line Screening).
Cancer cell line screening
Cell proliferation assays
All cell lines were from the American Type Culture Collection (ATCC) Manassas, Virginia (US) and maintained under ATCC-recommended protocols and within 9 pas- […]
DMSO at -80°C until one hour before use. Cells exposed within one hour after thaw-ing of the compound stocks. Final compound concentration range in the assay was 10 […]
cated by supplier. Compounds were dissolved in 100 % DMSO and stored at room temperature. Final concentration of the reference compounds in the assay was 3.16x10-5 M to 3.16x10-9 M. The final DMSO concentration during incubation was […]
Cell lines were plated in Advanced RPMI 1640 (Gibco, ref 12633-012) cell culture medium, containing 1% Glutamax solution (Gibco, ref 35050-038), 0.4% Pen Strep solution (Gibco, ref 15140-122) and bovine serum. The cPLA2α inhibitors were tested in 0.5% bovine serum (HyClone, ref SH30072.03) with the exception of769-P, A-204, BT-549, SR, T98G, which were tested in the presence of 1.0% serum and A-704 and LNCaP FGS, which were tested in the in the presence of 10% serum. Reference com-pounds were all tested in the presence of 10% bovine serum.
Cells were dispensed in a 384-well plate, at a concentration of 200 - 3200 cells per well, depending on the cell line, in 45 μL medium. Plated cells were incubated in a humidified atmosphere of 5% CO2 at 37 °C. After 24 hours, 5 μL of compound dilu-tion was added and plates were further incubated for another 72 hours. After 72 hours, 25 μL of ATPlite 1Step™ (PerkinElmer) solution was added to each well, and subse-quently shaken for 2 minutes. After 10 minutes of incubation in the dark, the lumines-cence was recorded on an Envision multimode reader (PerkinElmer).
Cell growth control. The cellular doubling times of all cell lines are calculated from the t = 0 hours and t = 72 hours growth signals of the untreated cells. If the doubling time is out of specification (0.5 – 2.0 times deviating from historic average) the assay […]
IC50s were calculated by non-linear regression using IDBS XLfit 5. The percentage growth after 72h (%-growth) was calculated as follows: 100% x (luminescence t = 72h / luminescence untreated,t=72h). This was fitted to the 10log compound concentration (conc) by a 4-parameter logistics curve: %-growth = bottom + (top – bottom) / (1+ 10(logIC50 – conc)*hill)), where hill is the Hill-coefficient, and bottom and top the asymptotic mini-mum and maximum cell growth that the compound allows in that assay.
All analysis were performed in the statistical software package R and visualized using GraphPad Prism version 10.0 .0

IC50 (SK-N-AS, SKNAS, peripheral_nervous_system, read-out: pIC50 (converted)): 19.1 µM
IC50 (SK-N-AS, read-out: IC50): 19 µM
IC50 (SK-N-FI, read-out: IC50): 17.5 µM
IC50 (SNU-C2B, read-out: IC50): 14.7 µM
IC50 (SR, read-out: IC50): 13.8 µM
IC50 (SUP-T1, SUP-T1, read-out: IC50): 12.5 µM
IC50 (SW48, SW48, large_intestine, read-out: pIC50 (converted)): 20 µM
IC50 (SW48, SW48, read-out: IC50): 19.9 µM
IC50 (SW480, SW480, read-out: IC50): 13.5 µM
IC50 (SW948, SW948, read-out: IC50): 17.4 µM
IC50 (SW-620, SW620, read-out: IC50): 18.1 µM
IC50 (T98G, read-out: IC50): 28.4 µM
IC50 (T-24, T24, read-out: IC50): 12.3 µM
IC50 (TT, read-out: IC50): 21.8 µM
IC50 (U2OS, U-2 OS, read-out: IC50): 17.7 µM
IC50 (U-87 MG, U87MG, central_nervous_system, read-out: pIC50 (converted)): 17 µM
IC50 (U-87 MG, read-out: IC50): 17 µM
IC50 (VA-ES-BJ, read-out: IC50): 19.6 µM
pIC50 (Hs578T, breast): 4,862
pIC50 (J82, urinary_tract): 4,801
pIC50 (Jurkat, blood): 4,903
pIC50 (K562, blood): 4,964
pIC50 (KU812, blood): 4,982
pIC50 (LoVo, large_intestine): 4,715
pIC50 (MCF7, breast): 4,897
pIC50 (MIAPaCa2, pancreas): 4,962
pIC50 (MeWo, skin): 4,763
pIC50 (NCIH82, lung): 4,863
pIC50 (NCIH460, lung): 4,648
pIC50 (PA1, ovary): 4,937
pIC50 (RPMI7951, skin): 4,789
pIC50 (RT4, urinary_tract): 4,784
pIC50 (SHP77, lung): 4,925
pIC50 (SKNFI, peripheral_nervous_system): 4,757
pIC50 (SUPT1, blood): 4,905
pIC50 (SW480, large_intestine): 4,869
pIC50 (SW620, large_intestine): 4,743
pIC50 (SW948, large_intestine): 4,759
pIC50 (T24, urinary_tract): 4,911
pIC50 (T98G, central_nervous_system): 4,546
pIC50 (TT, thyroid): 4,661
pIC50 (U2OS, bone): 4,752
pIC50 (VAESBJ, soft_tissue): 4,707
Compound: CCCCCCCCc1ccc(OCC(=O)c2nc(C(=O)OC)cs2)cc1 [GK470]
raw signal, dose-response (Figure S7a) (Jurkat E6.1, Log10 M -4): 1240 and 667
raw signal, dose-response (Figure S7a) (Jurkat E6.1, Log10 M -4.5): 69347 and 62800
raw signal, dose-response (Figure S7a) (Jurkat E6.1, Log10 M -5): 1516720 and 2014840
raw signal, dose-response (Figure S7a) (Jurkat E6.1, Log10 M -5.5): 2624707 and 2368947
raw signal, dose-response (Figure S7a) (Jurkat E6.1, Log10 M -6): 2496507 and 2717280
raw signal, dose-response (Figure S7a) (Jurkat E6.1, Log10 M -6.5): 2786800 and 2504560
raw signal, dose-response (Figure S7a) (Jurkat E6.1, Log10 M -7): 2315800 and 2537613
raw signal, dose-response (Figure S7a) (Jurkat E6.1, Log10 M -7.5): 2302120 and 2459400
raw signal, dose-response (Figure S7a) (Jurkat E6.1, Log10 M -8): 2509133 and 2328987
raw signal, dose-response (Figure S7a) (KU812, Log10 M -4): 2000 and 2307
raw signal, dose-response (Figure S7a) (KU812, Log10 M -5): 1822573 and 2233120
raw signal, dose-response (Figure S7a) (KU812, Log10 M -5.5): 3176813 and 3177440
raw signal, dose-response (Figure S7a) (KU812, Log10 M -6): 3485480 and 3637827
raw signal, dose-response (Figure S7a) (KU812, Log10 M -6.5): 3729800 and 3806653
raw signal, dose-response (Figure S7a) (KU812, Log10 M -7): 3631000 and 3828800
raw signal, dose-response (Figure S7a) (KU812, Log10 M -7.5): 3591800 and 3773040
raw signal, dose-response (Figure S7a) (KU812, Log10 M -8): 3583000 and 3731880
raw signal, dose-response (Figure S7a) (MOLT-4, Log10 M -4): 6747 and 7320
raw signal, dose-response (Figure S7a) (MOLT-4, Log10 M -4.5): 20107 and 20253
raw signal, dose-response (Figure S7a) (MOLT-4, Log10 M -5): 5205800 and 4645067
raw signal, dose-response (Figure S7a) (MOLT-4, Log10 M -5.5): 6414373 and 7056240
raw signal, dose-response (Figure S7a) (MOLT-4, Log10 M -6): 6351120 and 6709307
raw signal, dose-response (Figure S7a) (MOLT-4, Log10 M -6.5): 7338240 and 7172960
raw signal, dose-response (Figure S7a) (MOLT-4, Log10 M -7): 6855453 and 6993467
raw signal, dose-response (Figure S7a) (MOLT-4, Log10 M -7.5): 7127253 and 7052227
raw signal, dose-response (Figure S7a) (MOLT-4, Log10 M -8): 6961773 and 6888133
raw signal, dose-response (Figure S7a) (SR, Log10 M -4): 14067 and 13787
raw signal, dose-response (Figure S7a) (SR, Log10 M -4.5): 35000 and 26573
raw signal, dose-response (Figure S7a) (SR, Log10 M -5): 2706093 and 3120400
raw signal, dose-response (Figure S7a) (SR, Log10 M -5.5): 3256320 and 3580587
raw signal, dose-response (Figure S7a) (SR, Log10 M -6): 3226453 and 3322280
raw signal, dose-response (Figure S7a) (SR, Log10 M -6.5): 3558600 and 3526027
raw signal, dose-response (Figure S7a) (SR, Log10 M -7): 2883787 and 3035533
raw signal, dose-response (Figure S7a) (SR, Log10 M -7.5): 3423760 and 3325493
raw signal, dose-response (Figure S7a) (SR, Log10 M -8): 3355853 and 3535333
raw signal, dose-response (Figure S7a) (SUP-T1, Log10 M -4): 23760 and 47307
raw signal, dose-response (Figure S7a) (SUP-T1, Log10 M -4.5): 44040 and 66933
raw signal, dose-response (Figure S7a) (SUP-T1, Log10 M -5): 5647093 and 4986840
raw signal, dose-response (Figure S7a) (SUP-T1, Log10 M -5.5): 6851973 and 7008107
raw signal, dose-response (Figure S7a) (SUP-T1, Log10 M -6): 6610693 and 7288227
raw signal, dose-response (Figure S7a) (SUP-T1, Log10 M -6.5): 6531960 and 6798507
raw signal, dose-response (Figure S7a) (SUP-T1, Log10 M -7): 6485200 and 6760880
raw signal, dose-response (Figure S7a) (SUP-T1, Log10 M -7.5): 6096293 and 6838453
raw signal, dose-response (Figure S7a) (SUP-T1, Log10 M -8): 6918733 and 6611987

— article PMC11696576, “Next generation thiazolyl ketone inhibitors of cytosolic phospholipase A2 α for targeted cancer therapy” (Nature Communications, 2025)
